Reference: PMC11792066, “Development of benzofuran-derived sulfamates as dual aromatase-steroid sulfatase inhibitors (DASIs): design, synthesis and biological evaluation” (RSC Medicinal Chemistry, 2025)
Where “and” joins values, the source holds several entries; their conditions need not be identical. Equal entries are not always repeated. Where two headings read alike, the source gives them in different places.

What was measured:
aromatase (CYP19A1) = target: T1, aromatase (CYP19A1) (Homo sapiens, UniProt P11511); assay: Aromatase activity assay, modified tritiated water assay in JEG-3 cells; assay type: cell-based; details: 1 h incubation, triplicate
T1 construct: host or cells: JEG-3 cells
T1 sequence (P11511 1-503): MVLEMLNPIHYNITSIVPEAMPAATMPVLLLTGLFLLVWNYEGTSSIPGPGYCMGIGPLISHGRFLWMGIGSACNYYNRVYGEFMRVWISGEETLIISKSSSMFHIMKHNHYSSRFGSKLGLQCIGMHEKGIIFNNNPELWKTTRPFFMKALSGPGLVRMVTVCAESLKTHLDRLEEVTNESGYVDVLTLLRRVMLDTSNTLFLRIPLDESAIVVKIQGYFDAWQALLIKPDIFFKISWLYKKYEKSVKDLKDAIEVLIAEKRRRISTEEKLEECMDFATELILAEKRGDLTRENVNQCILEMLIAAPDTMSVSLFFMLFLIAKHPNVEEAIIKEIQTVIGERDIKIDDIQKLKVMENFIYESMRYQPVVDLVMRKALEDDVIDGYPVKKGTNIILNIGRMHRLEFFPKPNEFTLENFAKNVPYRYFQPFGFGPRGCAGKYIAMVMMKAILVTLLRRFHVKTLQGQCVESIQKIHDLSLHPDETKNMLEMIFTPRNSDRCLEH
Experimental: Seven compounds including the two carbamate side products were investigated for their aromatase inhibitory activity at 10 nM using the previously reported modified tritiated water assay.[20]
(§1) JEG-3 cells (ATCC) were cultured in Eagle's minimal essential medium (EMEM) supplemented with 10% fetal calf serum (FCS). The cells were maintained at 37 °C in a humidified incubator with 5% CO2. Then, the cells were cultured to approximately 80% confluence before any treatments were applied.
The aromatase activity was measured using a modified tritiated water assay. The JEG-3 cells were cultured in six-well plates in EMEM until reaching 80% confluence. The substrate androst-4-ene-3,17-dione [1β-^3H] was added to each well in a serum-free medium. In the presence and absence of dual inhibitors (at concentrations ranging from 0.001 to 10 nM), the cells were incubated at 37 °C for 1 hour. The reaction was stopped by placing the plates on ice for 5 minutes. The medium (500 μL) was obtained, vortexed with 2% dextran-treated charcoal in PBS, and centrifuged at 4000 rpm. [^3H]H2O in the supernatant was quantified using scintillation counting. The aromatase activity was normalized to protein concentration, determined by the Pierce BCA assay kit (Thermo Fisher Scientific), and expressed as pmol of product per mg of protein per hour.

steroid sulfatase (STS) = target: T2, steroid sulfatase (STS) (Homo sapiens, UniProt P08842); assay: Steroid sulfatase activity assay, cell-free JEG-3 lysate, [3H]oestrone sulfate substrate; assay type: biochemical; details: for IC50: 20 μM E1S, 37 °C, 1 h, triplicate
T2 construct: lysates from JEG-3 cells, known to have high endogenous STS activity; host or cells: JEG-3 cell lysate (supernatant after centrifugation)
T2 sequence (P08842 22-583): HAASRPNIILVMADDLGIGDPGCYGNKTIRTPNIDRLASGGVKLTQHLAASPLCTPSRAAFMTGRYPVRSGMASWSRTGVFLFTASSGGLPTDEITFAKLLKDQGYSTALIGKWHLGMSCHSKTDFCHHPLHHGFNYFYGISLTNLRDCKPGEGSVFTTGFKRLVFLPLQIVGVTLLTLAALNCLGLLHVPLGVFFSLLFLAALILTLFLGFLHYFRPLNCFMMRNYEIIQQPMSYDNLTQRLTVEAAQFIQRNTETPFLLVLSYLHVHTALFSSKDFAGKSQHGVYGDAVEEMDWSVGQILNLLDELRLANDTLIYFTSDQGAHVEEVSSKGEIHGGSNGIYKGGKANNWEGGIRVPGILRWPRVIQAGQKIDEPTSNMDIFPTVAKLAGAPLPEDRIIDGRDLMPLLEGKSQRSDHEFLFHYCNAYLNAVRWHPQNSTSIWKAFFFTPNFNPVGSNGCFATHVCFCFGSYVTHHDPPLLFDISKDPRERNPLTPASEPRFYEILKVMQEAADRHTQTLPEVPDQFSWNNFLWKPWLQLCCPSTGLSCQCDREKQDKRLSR
Experimental: as §1
STS activity was measured using an in vitro, cell-free assay. Briefly, lysates from JEG-3 cells, known to have high endogenous STS activity, were prepared by lysing the cells with a buffer (50 mM Tris-HCl, pH 7.4, and 1 mM EDTA). After centrifugation, the supernatant was collected and protein concentrations were determined using a BCA assay kit.
For the steroid sulfatase assay, 125 μg of JEG-3 lysate was incubated with the substrate [^3H]oestrone sulfate (E1S, 4 × 10^5 dpm) diluted to a final concentration of 20 μM using non-radioactive E1S. The mixture was incubated in the presence of different concentrations of inhibitors (ranging from 10^−11 M to 10^−5 M) at 37 °C for 1 hour. After incubation, the reaction was stopped by placing the tubes on ice, and the estrone product formed was separated from the substrate by extraction with toluene. [^14C]oestrone was added to the organic phase as an internal standard to monitor recovery and procedural losses.
The organic phase was subjected to liquid scintillation counting to measure both ^3H and ^14C. The amount of E1S hydrolysed was calculated from the ^3H counts, corrected for recovery using the ^14C standard, and converted into molar concentrations of hydrolysed product. The inhibitory activity of test compounds was expressed as the IC50 value, representing the concentration required to inhibit 50% of the STS activity.

[1] = JEG-3 cells, read-out: Arom IC50

Row | SMILES | IC50 (aromatase (CYP19A1); [1]) [nM] | IC50 (steroid sulfatase (STS)) | IC50 (aromatase (CYP19A1); Arom IC50, JEG-3 cells) [nM] | STS inhibitory activity (in words) (steroid sulfatase (STS))
1 | COc1ccc(C(=O)c2oc3cc(OS(N)(=O)=O)ccc3c2C)cc1 [19e, 2-(4-Methoxybenzoyl)-3-methylbenzofuran-6-yl sulfamate] | 35 | 164 nM |  | 
2 | NS(=O)(=O)Oc1ccc2cc(C(=O)c3ccc(Br)cc3)oc2c1 [18c, 2-(4-Bromobenzoyl)benzofuran-6-yl sulfamate] | > 1000 | 510 nM |  | 
3 | NC(=O)Oc1ccc(C(c2cc3cc(Cl)ccc3o2)n2cncn2)cc1 (stereo not drawn) [8b] |  |  | 4.1 | neither the triazole sulfamates (6, 7, 8a, 9, 10a) nor the triazole carbamates (8b, 10b) displayed STS inhibitory activity
4 | N#Cc1ccc(C(=O)c2cc3ccc(OS(N)(=O)=O)cc3o2)cc1 [18f, 2-(4-Cyanobenzoyl)benzofuran-6-yl sulfamate] | > 1000 | 280 nM |  | 
5 | Cc1c(C(=O)c2ccc(Cl)cc2)oc2cc(OC(N)=O)ccc12 [compound 21, 2-(4-Chlorobenzoyl)-3-methylbenzofuran-6-yl carbamate] | ≥ 1000 | ≥ 1000 nM and 980 nM |  | 
6 | Cc1c(C(=O)c2ccc(Br)cc2)oc2cc(OS(N)(=O)=O)ccc12 [19c, 2-(4-Bromobenzoyl)-3-methylbenzofuran-6-yl sulfamate] | 22 | 830 nM |  | 
7 | N#Cc1ccc(C(c2ccc(C#N)cc2)n2cncn2)cc1 [Letrozole, reference compound] |  | > 1000 nM |  | 
8 | N#Cc1ccc(C(c2cc3ccc(OC(N)=O)cc3o2)n2cncn2)cc1 (stereo not drawn) [10b, 2-((4-Cyanophenyl)(1H-1,2,4-triazol-1-yl)methyl)benzofuran-6-yl carbamate] |  |  | 0.65 | neither the triazole sulfamates (6, 7, 8a, 9, 10a) nor the triazole carbamates (8b, 10b) displayed STS inhibitory activity
9 | COc1ccc(C(=O)c2cc3ccc(OS(N)(=O)=O)cc3o2)cc1 [18e, 2-(4-Methoxybenzoyl)benzofuran-6-yl sulfamate] | > 1000 | 115 nM |  | 
10 | NS(=O)(=O)Oc1ccc2c3c(c(=O)oc2c1)CCCCC3 [STX64, Irosustat, reference compound] | > 1000 |  |  | 
11 | NS(=O)(=O)Oc1ccc2cc(C(=O)c3ccc(F)cc3)oc2c1 [18a, 2-(4-Fluorobenzoyl)benzofuran-6-yl sulfamate] | > 1000 | 740 nM |  | 
12 | NS(=O)(=O)Oc1ccc2cc(C(c3ccc(Cl)cc3)n3cncn3)oc2c1 (stereo not drawn) [compound 6, 2-((4-Chlorophenyl)(1H-1,2,4-triazol-1-yl)methyl)benzofuran-6-yl sulfamate] | 1.4 |  |  | neither the triazole sulfamates (6, 7, 8a, 9, 10a) nor the triazole carbamates (8b, 10b) displayed STS inhibitory activity
13 | NS(=O)(=O)Oc1ccc2cc(C(c3ccc(F)cc3)n3cncn3)oc2c1 (stereo not drawn) [compound 9, 2-((4-Fluorophenyl)(1H-1,2,4-triazol-1-yl)methyl)benzofuran-6-yl sulfamate] | 8.4 |  |  | neither the triazole sulfamates (6, 7, 8a, 9, 10a) nor the triazole carbamates (8b, 10b) displayed STS inhibitory activity
14 | Cc1c(C(=O)c2ccc(F)cc2)oc2cc(OS(N)(=O)=O)ccc12 [19a, 2-(4-Fluorobenzoyl)-3-methylbenzofuran-6-yl sulfamate] | 50 | 654 nM |  | 
15 | NS(=O)(=O)Oc1ccc(C(c2cc3cc(Cl)ccc3o2)n2cncn2)cc1 (stereo not drawn) [8a, 4-((5-Chlorobenzofuran-2-yl)(1H-1,2,4-triazol-1-yl)methyl)phenyl sulfamate] | > 10 |  |  | neither the triazole sulfamates (6, 7, 8a, 9, 10a) nor the triazole carbamates (8b, 10b) displayed STS inhibitory activity
16 | Cc1c(C(=O)c2ccc(Cl)cc2)oc2cc(OS(N)(=O)=O)ccc12 [19b, 2-(4-Chlorobenzoyl)-3-methylbenzofuran-6-yl sulfamate] | 137 | 48 nM |  | 
17 | NS(=O)(=O)Oc1ccc2oc(C(c3ccc(Cl)cc3)n3cncn3)cc2c1 (stereo not drawn) [compound 7, 2-((4-Chlorophenyl)(1H-1,2,4-triazol-1-yl)methyl)benzofuran-5-yl sulfamate] | 5.49 |  |  | neither the triazole sulfamates (6, 7, 8a, 9, 10a) nor the triazole carbamates (8b, 10b) displayed STS inhibitory activity
18 | NS(=O)(=O)Oc1ccc2cc(C(=O)c3ccc(Cl)cc3Cl)oc2c1 [18d, 2-(2,4-Dichlorobenzoyl)benzofuran-6-yl sulfamate] | > 1000 | 310 nM |  | 
19 | Cc1c(C(=O)c2ccc(Cl)cc2Cl)oc2cc(OS(N)(=O)=O)ccc12 [19d, 2-(2,4-Dichlorobenzoyl)-3-methylbenzofuran-6-yl sulfamate] | 20 | 1500 nM |  | 
20 | N#Cc1ccc(C(c2cc3ccc(OS(N)(=O)=O)cc3o2)n2cncn2)cc1 (stereo not drawn) [10a, 2-((4-Cyanophenyl)(1H-1,2,4-triazol-1-yl)methyl)benzofuran-6-yl sulfamate] | 1.52 |  |  | neither the triazole sulfamates (6, 7, 8a, 9, 10a) nor the triazole carbamates (8b, 10b) displayed STS inhibitory activity
21 | NC(=O)Oc1ccc2cc(C(=O)c3ccc(Cl)cc3)oc2c1 [compound 20, 2-(4-Chlorobenzoyl)benzofuran-6-yl carbamate] | ≥ 1000 | ≥ 1000 nM and 1220 nM |  | 
22 | NS(=O)(=O)Oc1ccc2cc(C(=O)c3ccc(Cl)cc3)oc2c1 [18b, 2-(4-Chlorobenzoyl)benzofuran-6-yl sulfamate] | > 1000 | 410 nM |  | 
